The values that follow come from patent publication US11731942B1, “3-substituted quinolin-2-one compounds as antibacterial agents” (KING FAISAL UNIVERSITY, priority 2023, dated 2023).

The test system of assay [1] is Staphylococcus aureus ATCC 29213. The experiment in a line: In vitro antibacterial activity (CLSI M07-A10 dilution), MIC. In kind it is cell-based. As to conditions: ATCC29213.
The subject of assay [2] is Staphylococcus aureus ATCC BAA-1556 (MERSA resistant). Described as above. It counts as cell-based. Conditions: ATCCBAA1556.
In assay [3] the test system is Staphylococcus epidermidis. The assay is described as above. In kind it is cell-based.
The test system of assay [4] is Bacillus subtilis MTCC 441. The description is as above. As to conditions: MTCC441. It counts as cell-based.
Assay [5] deals with Enterococcus faecium ATCC 35667. The assay is described as above. In kind it is cell-based. Conditions: ATCC35667.
Assay [6] deals with Enterococcus faecium ATCC 51559 (VRE resistant). Described as above. It counts as cell-based.
The test system of assay [7] is Klebsiella pneumonia MTCC 618. The description is as above. As to conditions: Klebsiella pneumoniae, MTCC618. In kind it is cell-based.
The test system of assay [8] is Escherichia coli MTCC 443. The assay is described as above. It counts as cell-based. As to conditions: MTCC443.
Assay [9] has as its system Pseudomonas aeruginosa MTCC 741. Described as above. In kind it is cell-based. Conditions: MTCC741.
Assay [10] deals with H37Rv type of M. tuberculosis strains. The experiment in a line: Anti-tubercular alamar blue microplate MIC. In kind it is cell-based. As to conditions: 168 h, mycobacterium tuberculosis H37Rv strain, 7 days at 37° C., read-out: anti-mycobacterial activity (MIC).
Assay [11] deals with T1, E. coli DNA Gyrase (Escherichia coli, UniProt P0AES4+P0AES6).
T1 construct: purchased Inspiralis
T1 sequence (P0AES4 whole entry, one chain of several): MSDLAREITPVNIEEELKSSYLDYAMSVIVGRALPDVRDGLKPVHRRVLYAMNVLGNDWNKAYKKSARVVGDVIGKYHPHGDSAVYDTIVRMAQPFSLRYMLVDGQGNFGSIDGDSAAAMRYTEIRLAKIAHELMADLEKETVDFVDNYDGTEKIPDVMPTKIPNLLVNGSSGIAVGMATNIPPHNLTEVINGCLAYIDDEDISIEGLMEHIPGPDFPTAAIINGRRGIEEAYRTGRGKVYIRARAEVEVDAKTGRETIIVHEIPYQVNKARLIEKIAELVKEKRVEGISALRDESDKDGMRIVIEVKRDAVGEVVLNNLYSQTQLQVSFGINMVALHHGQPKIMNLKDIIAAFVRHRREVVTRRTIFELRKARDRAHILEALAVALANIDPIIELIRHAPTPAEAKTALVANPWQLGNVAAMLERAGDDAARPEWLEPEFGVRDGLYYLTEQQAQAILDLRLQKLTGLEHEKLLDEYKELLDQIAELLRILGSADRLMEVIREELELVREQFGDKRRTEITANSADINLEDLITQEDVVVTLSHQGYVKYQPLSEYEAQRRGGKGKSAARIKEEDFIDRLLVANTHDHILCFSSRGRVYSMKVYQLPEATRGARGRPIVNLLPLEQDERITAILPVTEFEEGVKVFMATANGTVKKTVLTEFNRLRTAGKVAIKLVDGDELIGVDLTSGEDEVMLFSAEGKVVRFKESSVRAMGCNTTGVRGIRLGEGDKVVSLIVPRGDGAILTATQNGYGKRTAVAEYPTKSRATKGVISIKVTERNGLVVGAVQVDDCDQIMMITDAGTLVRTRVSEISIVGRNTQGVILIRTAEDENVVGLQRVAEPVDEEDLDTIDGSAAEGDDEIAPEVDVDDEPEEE
Kind of assay: Inspiralis DNA gyrase inhibition assay. It counts as biochemical. Here is the method:
Inhibitory potencies were investigated utilizing the Inspiralis assay on streptavidin-coated 96-well microtiter plates. First, the plates were rehydrated with buffer (20 mM Tris-HCl with pH 7.6, 0.01% w/v BSA, 0.05% v/v Tween 20, 137 mM NaCl) and the biotinylated oligonucleotide was then immobilized. After washing off the unbound oligonucleotide, the enzyme test was performed. The reaction volume of 30 μL in buffer (35 mM Tris×HCl with pH 7.5, 4 mM MgCl2, 24 mM KCl, 2 mM DTT, 1.8 mM spermidine, 1 mM ATP, 6.5% w/v glycerol, 0.1 mg/mL albumin) contained 1.5 U of DNA gyrase from E. coli, 0.75 μg of relaxed pNO1 plasmid, and 3 μL solution of the inhibitor in 10% DMSO and 0.008% Tween 20. Reaction solutions were incubated at 37° C. for 30 min. After that, the TF buffer (50 mM NaOAc with pH 5.0, 50 mM NaCl and 50 mM MgCl2) was added to terminate the enzymatic reaction. After additional incubation for 30 min at rt, during which biotinoligonucleotide-plasmid triplex was formed, the unbound plasmid was washed off using TF buffer and SybrGOLD in T10 buffer (10 mM Tris HCl with pH 8.0 and 1 mM EDTA) was added. The fluorescence was measured with a microplate reader (BioTek Synergy H4, excitation: 485 nm, emission: 535 nm). Initial screening was done at 100 or 10 μM concentration of inhibitors. […] GraphPad Prism software was used to calculate the IC50 values. […]

Converted amounts (≈) assume the structure as drawn. Where two headings read alike, the source gives them in different places.

Consider `CCCCCN(C)Cc1cc(C(=O)O)ccc1/C=C/C(=O)c1cc2cc(F)cc(NC)c2[nH]c1=O` [Compound 7, (E)-4-(3-(6-fluoro-8-(methylamino)-2-oxo-1,2-dihydroquinolin-3-yl)-3-oxoprop-1-en-1-yl)-3-((methyl(pentyl)amino)methyl)benzoic acid], for which the MIC in assay [1] (Staphylococcus aureus ATCC 29213, read-out: MIC) worked out at 0.5 µg/mL (≈ 1.04 µM); in [2] (Staphylococcus aureus ATCC BAA-1556 (MERSA resistant), read-out: MIC), 0.5 µg/mL (≈ 1.04 µM); in [3] (read-out: MIC), 0.5 µg/mL (≈ 1.04 µM); in [4] (Bacillus subtilis MTCC 441, read-out: MIC) it was 0.25 µg/mL (≈ 0.521 µM); in assay [5] (Enterococcus faecium ATCC 35667, read-out: MIC), 0.25 µg/mL (≈ 0.521 µM); in [6] (Enterococcus faecium ATCC 51559 (VRE resistant), read-out: MIC), 0.25 µg/mL (≈ 0.521 µM). The MIC in [7] (Klebsiella pneumonia MTCC 618, read-out: MIC) was 0.5 µg/mL (≈ 1.04 µM); in assay [8] (Escherichia coli MTCC 443, read-out: MIC), 1 µg/mL (≈ 2.09 µM); in assay [9] (Pseudomonas aeruginosa MTCC 741, read-out: MIC), 0.25 µg/mL (≈ 0.521 µM); in [10] it was 4 µg/mL (≈ 8.34 µM). Moreover, in assay [11], the IC50 worked out at 12 nM.
With `CN[C@H](CC(C)C)C(=O)N[C@H]1C(=O)N[C@@H](CC(N)=O)C(=O)N[C@H]2C(=O)N[C@H]3C(=O)N[C@H](C(=O)N[C@H](C(=O)O)c4cc(O)cc(O)c4-c4cc3ccc4O)[C@H](O)c3ccc(c(Cl)c3)Oc3cc2cc(c3O[C@@H]2O[C@H](CO)[C@@H](O)[C@H](O)[C@H]2O[C@H]2C[C@](C)(N)[C@H](O)[C@H](C)O2)Oc2ccc(cc2Cl)[C@H]1O` [Vancomycin, reference compound], the MIC in assay [1] (Staphylococcus aureus) is 1 µg/mL (≈ 0.69 µM); in [2] (Staphylococcus aureus), 1 µg/mL (≈ 0.69 µM); in assay [3] it was 1 µg/mL (≈ 0.69 µM); in [4] (Bacillus subtilis), 0.5 µg/mL (≈ 0.345 µM); in [5] (Enterococcus faecium), 0.5 µg/mL (≈ 0.345 µM); in assay [6] (Enterococcus faecium) it was above 128 µg/mL. Also, the MIC in assay [7], in assay [8] (Escherichia coli) and in assay [9] (Pseudomonas aeruginosa) was above 128 µg/mL throughout.

The MIC is the lowest concentration that inhibits growth of the organism. Usually IC50 stands for the point on the concentration scale where inhibition reaches its midpoint.
